From patent US20040161399A1, “Use of nonimmunosuppressive [$g(g)-hydroxy-n-methyl-l-leucine4]cyclosporin derivatives for treating hair loss” (priority 2001, published 2004)
Starred links: 1 amine or outer side, 2 acyl side, 3 side chain; linkers in the order of their positions; H or OH if unused. Non-standard residues stand in square brackets, D forms with d. Residues, ends and D or L forms follow the SMILES beside them. AlaΨ(CSNH)dAla = C[C@H](N[*:1])C(=S)N[C@H](C)C(=O)[*:2]; MeBmt = C/C=C/C[C@@H](C)[C@@H](O)[C@H](NC)C(=O)O; NMeLeu(4-OH) = CN[C@@H](CC(C)(C)O)C(=O)O; NMeL = CN[C@@H](CC(C)C)C(=O)O; NMeV = CN[C@H](C(=O)O)C(C)C; dHiv = CC(C)[C@@H](O)C(=O)O; dNMeA = CN[C@H](C)C(=O)O; Abu = CC[C@H](N)C(=O)O; Sar = CNCC(=O)O

Tests used:
Female C57BL/6 mice = assay: Evaluation of hair restoring effect in mice (topical application to shaved back); assay type: in vivo; conditions: for Area rate of hair regrowth (%): C57BL/6 mice, hair-removed back, 100 μl of 0.1% w/v once a day for 30 days, visual examination; for hair restoring / hair growth promoting effect (in words): qualitative statement
Method: Evaluation of Hair Restoring Effect in Mice
Female C57BL/6 mice of ages 6 to 7 weeks were utilized. After removing hairs on the middle of the back with an electric shaver, the mice were weighed and randomly assigned to the test groups with an even distribution of weights. […] The results were determined by visual examination, in terms of degrees of hair regrowth. With respect to respective hair-removed areas, rates of new hair growth were examined and compared.

[1] = tested on: splenocytes (responder cells from BALB/c mice, stimulator cells from C57BL/6 mice); assay: Mixed Lymphocyte Reaction (MLR) method, 3H-thymidine incorporation; assay type: cell-based; conditions: qualitative statement
Method: Evaluation of Non-Immunosuppressive Activity In Vitro
Responder cells from BALB/c mice were mixed with an equal number of stimulator cells from C57BL/6 mice pre-treated with mitomycin. […] After 4 days of incubation, ^3H-thymidine was added to the mixtures and incubated for an additional 4 hours. Then, the amount of thymidine incorporated into the cells was measured (liquid scintillation counter), and IC50 (μg/ml) of respective cyclosporins were calculated.

Row | Compound | Area rate of hair regrowth (%) (Female C57BL/6 mice) | hair restoring / hair growth promoting effect (in words) (Female C57BL/6 mice) | immunosuppressive activity (in words) [1]
1 | C/C=C/C[C@@H](C)[C@@H](O)[C@H]1C(=O)N[C@@H]([C@@H](C)O)C(=O)N(C)CC(=O)N(C)[C@@H](CC(C)(C)O)C(=O)N[C@@H](CC(C)C)C(=O)N(C)[C@@H](CC(C)C)C(=O)N[C@@H](C)C(=O)O[C@H](C(C)C)C(=O)N(C)[C@@H](CC(C)C)C(=O)N[C@@H](CC(C)C)C(=O)N(C)[C@@H](C(C)C)C(=O)N1C [[L-threonine^2][γ-hydroxy-N-methyl-L-leucine^4][L-leucine^5][D-2-hydroxyisovaleric acid^8][L-leucine^10] cyclosporin A] (cyclo([MeBmt]T[Sar][NMeLeu(4-OH)]L[NMeL]A[dHiv][NMeL]L[NMeV])) | 90% | – | –
2 | [γ-hydroxy-N-methyl-L-leucine^4] cyclosporin A [reference compound] | – | has a hair restoring effect | no immunosuppressive activity
3 | C/C=C/C[C@@H](C)[C@@H](O)[C@H]1C(=O)N[C@@H](CC)C(=O)N(C)CC(=O)N(C)[C@@H](CC(C)(C)O)C(=O)N[C@@H](C(C)C)C(=O)N(C)[C@@H](CC(C)C)C(=O)N[C@@H](C)C(=S)N[C@H](C)C(=O)N(C)[C@@H](CC(C)C)C(=O)N(C)[C@@H](CC(C)C)C(=O)N(C)[C@@H](C(C)C)C(=O)N1C [[γ-hydroxy-N-methyl-L-leucine^4][alaninethiomide^7, ^7ψ^8 CS—NH] cyclosporin A] (cyclo([MeBmt][Abu][Sar][NMeLeu(4-OH)]V[NMeL][AlaΨ(CSNH)dAla][NMeL][NMeL][NMeV])) | 91% | – | –
4 | C/C=C/C[C@@H](C)[C@@H](O)[C@H]1C(=O)N[C@@H](CC)C(=O)N(C)[C@H](C)C(=O)N(C)[C@@H](CC(C)(C)O)C(=O)N[C@@H](C(C)C)C(=O)N(C)[C@@H](CC(C)C)C(=O)N[C@@H](C)C(=O)N[C@H](C)C(=O)N(C)[C@@H](CC(C)C)C(=O)N(C)[C@@H](CC(C)C)C(=O)N(C)[C@@H](C(C)C)C(=O)N1C [[N-methyl-D-alanine^3][γ-hydroxy-N-methyl-L-leucine^4] cyclosporin A] (cyclo([MeBmt][Abu][dNMeA][NMeLeu(4-OH)]V[NMeL]A[dA][NMeL][NMeL][NMeV])) | 95% | has a hair restoring effect | reduced
